Assay [1] has as its target T1, GCase (Homo sapiens, UniProt P04062).
T1 sequence (P04062 40-536): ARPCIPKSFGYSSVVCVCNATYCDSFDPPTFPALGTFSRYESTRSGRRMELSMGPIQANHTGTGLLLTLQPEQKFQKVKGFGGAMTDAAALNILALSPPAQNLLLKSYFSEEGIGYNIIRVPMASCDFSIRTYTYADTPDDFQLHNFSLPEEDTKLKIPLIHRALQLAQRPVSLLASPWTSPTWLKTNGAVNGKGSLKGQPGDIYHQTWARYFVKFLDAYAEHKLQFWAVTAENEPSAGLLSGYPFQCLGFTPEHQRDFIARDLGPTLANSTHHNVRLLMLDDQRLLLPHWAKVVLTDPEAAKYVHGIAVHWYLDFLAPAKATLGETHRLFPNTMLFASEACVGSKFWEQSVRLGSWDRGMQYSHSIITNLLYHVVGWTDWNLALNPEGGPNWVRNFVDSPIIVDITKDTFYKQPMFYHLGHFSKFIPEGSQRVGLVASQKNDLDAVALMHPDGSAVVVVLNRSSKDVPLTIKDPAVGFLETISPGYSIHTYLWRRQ
Nature of the assay: Inhibitory activity towards human GCase in leukocyte extracts from healthy donors. It is filed as biochemical. The arrangement: screened towards GCase from leukocytes isolated from healthy donors (controls); Isolated leukocytes were disrupted by sonication; from tissue; host or cells: pooled human leukocytes from healthy donors, sonicated homogenate. To be noted: for IC50: GCase from leukocytes of healthy donors, 4-methylumbelliferyl-β-D-glucoside 3.33 mM; for inhibition at 1000 µM: human leukocyte extracts, inhibitor 1 mM, 37 °C, read-out: GCase inhibition (percentage inhibition); for rp/n (multivalent effect): relative potency divided by number of binding units n; for rp (relative potency): with respect to monovalent compound 18. How it is done: The compounds were screened in extracts from a pool of human leucocytes isolated from healthy donors (1 mM inhibitor concentration, 37 °C and optimal pH conditions, see Experimental Section). […] Isolated leukocytes were disrupted by sonication, and a micro BCA protein assay kit (Sigma‐Aldrich) was used to determine the total protein amount for the enzymatic assay, according to the manufacturer instructions. Enzyme activity was measured in a flat‐bottomed 96‐well plate. […] Percentage GCase inhibition is given with respect to the control (without iminosugar). Data are mean ± SD (n=3).
Data are mean ± SD (n=3). Data obtained were fitted using the Origin Microcal program (see the Supporting Information file for further details). […]
leukocytes isolated from healthy donors (controls). Isolated leukocytes were disrupted by sonication, and a micro BCA protein assay kit (Sigma –Aldrich) was used to determine the total protein amount for the enzymatic assay, according to the manufactu rer instructions. Enzyme activity was measured in a flat - […]
GCase inhibition is given with respect to the control (without iminosugar). Data are mean ± SD (n=3).
The corresponding calculated
IC50 determination: The IC50 values of inhibitors against GCase were determined by measuring the initial […]
Data are mean ± SD (n=3). Data obtained were fitted to the following equation using the Origin Microcal program. where Vi/Vo, represent the ratio between the activity measured in the presence of the inhibitor (Vi) and the activity of the control without the inhibitor (V0), “x” the inhibitor concentration, Max and Min, the maximal and minimal enzymatic activity observed, respectively.

The target of assay [2] is T1, GCase. More on the design: method as in earlier work. The settings on record: 100 μM; ref 20a; cited from earlier work.

One may read the IC50 as the midpoint of a concentration-inhibition curve. For orientation: inhibition means the drop in the measured response relative to a control, in per cent. As to `NC(COCc1cn(CCCCCCCCCN2C[C@@H](O)C(O)[C@H](O)C2)nn1)(COCc1cn(CCCCCCCCCN2C[C@@H](O)C(O)[C@H](O)C2)nn1)COCc1cn(CCCCCCCCCN2C[C@@H](O)C(O)[C@H](O)C2)nn1` [Compound 11], at GCase [1], 27 ± 3 µM corresponded to half-maximal inhibition (IC50), the inhibition at 1000 µM amounted to 100%, the “rp/n (multivalent effect)” value came out at 6 and the “rp (relative potency)” value turned out to be 19.

Turning to `OCc1cn(CCCCCCCCCN2C[C@@H](O)C(O)[C@H](O)C2)nn1` [Compound 18], on GCase [1], the IC50 was 500 ± 50 µM and the inhibition at 1000 µM was roughly 70%.

As to `O=C(CCCCC(=O)NC(COCc1cn(CCCCCCCCCN2C[C@@H](O)C(O)[C@H](O)C2)nn1)(COCc1cn(CCCCCCCCCN2C[C@@H](O)C(O)[C@H](O)C2)nn1)COCc1cn(CCCCCCCCCN2C[C@@H](O)C(O)[C@H](O)C2)nn1)NC(COCc1cn(CCCCCCCCCN2C[C@@H](O)C(O)[C@H](O)C2)nn1)(COCc1cn(CCCCCCCCCN2C[C@@H](O)C(O)[C@H](O)C2)nn1)COCc1cn(CCCCCCCCCN2C[C@@H](O)C(O)[C@H](O)C2)nn1` [Compound 15], at GCase [1], 11 ± 3 µM corresponded to half-maximal inhibition (IC50), the “rp/n (multivalent effect)” value is 8 and the “rp (relative potency)” value turned out to be 45.

As to `CCCCCCCCN1CC(O)C(O)C(O)C1` (stereo not shown), the “Increase of enzyme activity” value at GCase [2] is recorded as 1.25 fold.

As to `OC1[C@H](O)CN(CCCCCCCCCn2cc(COCC(COCc3cn(CCCCCCCCCN4C[C@@H](O)C(O)[C@H](O)C4)nn3)(COCc3cn(CCCCCCCCCN4C[C@@H](O)C(O)[C@H](O)C4)nn3)COCc3cn(CCCCCCCCCN4C[C@@H](O)C(O)[C@H](O)C4)nn3)nn2)C[C@H]1O` [Compound 13], at GCase [1], inhibition was half-maximal at 9 ± 4 µM (IC50), the “rp/n (multivalent effect)” value is on record as 14 and the “rp (relative potency)” value is given as 56.

`OC1[C@H](O)CN(CCCCCCCCCn2cc(COC[C@@H](OCc3cn(CCCCCCCCCN4C[C@@H](O)C(O)[C@H](O)C4)nn3)[C@@H](OCc3cn(CCCCCCCCCN4C[C@@H](O)C(O)[C@H](O)C4)nn3)[C@H](OCc3cn(CCCCCCCCCN4C[C@@H](O)C(O)[C@H](O)C4)nn3)[C@@H](COCc3cn(CCCCCCCCCN4C[C@@H](O)C(O)[C@H](O)C4)nn3)OCc3cn(CCCCCCCCCN4C[C@@H](O)C(O)[C@H](O)C4)nn3)nn2)C[C@H]1O` [Compound 14]: on GCase [1], the IC50 is 6 ± 2 µM, the “rp/n (multivalent effect)” value is on record as 14 and the “rp (relative potency)” value is 83.
